# Data: ChEMBL document CHEMBL4507305, “Data for DCP probe TP-024” (2021)
# Key:
# [1] = target: Activin receptor type-1-like (Homo sapiens) (UniProt P37023); settings: Compound concentration 1000.0 nM
# [2] = target: Atypical kinase COQ8A, mitochondrial (Homo sapiens) (UniProt Q8NI60); settings: Compound concentration 1000.0 nM
# [3] = test system: ALK tyrosine kinase receptor (Homo sapiens), Q9UM73 [L1196M]; settings: Compound concentration 1000.0 nM
# [4] = target: BMP-2-inducible protein kinase (Homo sapiens) (UniProt Q9NSY1); settings: Compound concentration 1000.0 nM
# [5] = target: Cyclin-dependent kinase 4 (Homo sapiens) (UniProt P11802); settings: Compound concentration 1000.0 nM
# Sequence of Cyclin-dependent kinase 4 (Homo sapiens) (P11802 whole entry): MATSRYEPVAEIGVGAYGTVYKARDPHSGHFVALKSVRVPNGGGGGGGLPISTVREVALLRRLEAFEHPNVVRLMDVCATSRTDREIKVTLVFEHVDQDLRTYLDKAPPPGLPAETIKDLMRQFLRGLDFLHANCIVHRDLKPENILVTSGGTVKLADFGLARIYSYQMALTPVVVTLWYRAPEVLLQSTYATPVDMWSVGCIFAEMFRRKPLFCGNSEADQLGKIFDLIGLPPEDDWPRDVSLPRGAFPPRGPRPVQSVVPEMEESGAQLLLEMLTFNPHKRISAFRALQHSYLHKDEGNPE
# [6] = target: Serine/threonine-protein kinase Chk2 (Homo sapiens) (UniProt O96017); settings: Compound concentration 1000.0 nM
# Sequence of Serine/threonine-protein kinase Chk2 (Homo sapiens) (O96017 whole entry): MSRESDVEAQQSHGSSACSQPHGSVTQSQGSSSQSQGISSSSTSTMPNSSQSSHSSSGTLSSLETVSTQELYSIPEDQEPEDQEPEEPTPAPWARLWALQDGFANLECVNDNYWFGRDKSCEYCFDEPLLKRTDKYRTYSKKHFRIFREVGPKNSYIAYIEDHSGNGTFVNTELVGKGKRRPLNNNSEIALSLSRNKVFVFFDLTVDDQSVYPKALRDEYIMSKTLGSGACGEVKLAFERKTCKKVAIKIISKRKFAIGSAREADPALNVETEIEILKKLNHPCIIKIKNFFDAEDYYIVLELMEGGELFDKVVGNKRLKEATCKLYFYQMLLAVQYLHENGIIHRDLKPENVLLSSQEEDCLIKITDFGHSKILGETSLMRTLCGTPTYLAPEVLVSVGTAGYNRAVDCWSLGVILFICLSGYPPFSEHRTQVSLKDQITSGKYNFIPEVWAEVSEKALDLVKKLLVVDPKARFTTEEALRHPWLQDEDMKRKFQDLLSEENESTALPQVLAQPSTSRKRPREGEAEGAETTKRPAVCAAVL
# [7] = target: Casein kinase II subunit alpha (Homo sapiens) (UniProt P68400); settings: Compound concentration 1000.0 nM
# [8] = target: Mitogen-activated protein kinase kinase kinase 12 (Homo sapiens) (UniProt Q12852); settings: Compound concentration 1000.0 nM
# [9] = target: Dual specificity tyrosine-phosphorylation-regulated kinase 1A (Homo sapiens) (UniProt Q13627); settings: Compound concentration 1000.0 nM
# [10] = test system: Epidermal growth factor receptor (Homo sapiens), P00533 [UNDEFINED MUTATION]; settings: Compound concentration 1000.0 nM
# [11] = test system: Epidermal growth factor receptor (Homo sapiens), P00533 [G719S]; settings: Compound concentration 1000.0 nM
# [12] = test system: Epidermal growth factor receptor (Homo sapiens), P00533 [UNDEFINED MUTATION]; settings: Compound concentration 1000.0 nM; remark: listed apart in the source
# [13] = target: Ephrin type-A receptor 6 (Homo sapiens) (UniProt Q9UF33); settings: Compound concentration 1000.0 nM
# Sequence of Ephrin type-A receptor 6 (Homo sapiens) (Q9UF33 whole entry): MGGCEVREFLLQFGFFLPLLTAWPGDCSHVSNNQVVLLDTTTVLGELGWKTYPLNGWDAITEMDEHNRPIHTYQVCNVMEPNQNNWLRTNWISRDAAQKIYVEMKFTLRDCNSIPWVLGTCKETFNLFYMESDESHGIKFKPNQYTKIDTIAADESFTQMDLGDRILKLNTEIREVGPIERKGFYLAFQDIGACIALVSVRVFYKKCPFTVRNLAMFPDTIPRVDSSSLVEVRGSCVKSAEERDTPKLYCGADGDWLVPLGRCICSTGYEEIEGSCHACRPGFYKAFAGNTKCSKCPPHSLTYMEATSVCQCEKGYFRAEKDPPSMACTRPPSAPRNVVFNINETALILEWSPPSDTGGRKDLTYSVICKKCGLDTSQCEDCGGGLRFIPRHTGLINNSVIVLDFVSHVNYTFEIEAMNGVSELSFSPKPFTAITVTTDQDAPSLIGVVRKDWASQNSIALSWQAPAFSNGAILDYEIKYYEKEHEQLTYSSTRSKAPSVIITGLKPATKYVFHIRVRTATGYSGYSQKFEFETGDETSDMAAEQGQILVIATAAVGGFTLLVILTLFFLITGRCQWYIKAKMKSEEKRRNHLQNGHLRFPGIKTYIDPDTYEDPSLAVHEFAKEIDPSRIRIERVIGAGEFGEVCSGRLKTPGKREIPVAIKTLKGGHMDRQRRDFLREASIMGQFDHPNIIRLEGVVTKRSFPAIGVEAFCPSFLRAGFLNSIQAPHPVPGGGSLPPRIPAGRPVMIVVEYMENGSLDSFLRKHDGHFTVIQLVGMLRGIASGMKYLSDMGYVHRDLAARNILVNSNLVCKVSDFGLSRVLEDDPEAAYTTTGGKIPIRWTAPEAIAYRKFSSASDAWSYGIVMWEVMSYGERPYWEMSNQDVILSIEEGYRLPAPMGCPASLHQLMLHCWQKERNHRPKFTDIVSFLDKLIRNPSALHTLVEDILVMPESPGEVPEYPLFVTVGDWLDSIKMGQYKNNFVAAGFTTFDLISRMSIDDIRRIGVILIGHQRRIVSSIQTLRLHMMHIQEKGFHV
# [14] = target: Ephrin type-A receptor 8 (Homo sapiens) (UniProt P29322); settings: Compound concentration 1000.0 nM
# Sequence of Ephrin type-A receptor 8 (Homo sapiens) (P29322 whole entry): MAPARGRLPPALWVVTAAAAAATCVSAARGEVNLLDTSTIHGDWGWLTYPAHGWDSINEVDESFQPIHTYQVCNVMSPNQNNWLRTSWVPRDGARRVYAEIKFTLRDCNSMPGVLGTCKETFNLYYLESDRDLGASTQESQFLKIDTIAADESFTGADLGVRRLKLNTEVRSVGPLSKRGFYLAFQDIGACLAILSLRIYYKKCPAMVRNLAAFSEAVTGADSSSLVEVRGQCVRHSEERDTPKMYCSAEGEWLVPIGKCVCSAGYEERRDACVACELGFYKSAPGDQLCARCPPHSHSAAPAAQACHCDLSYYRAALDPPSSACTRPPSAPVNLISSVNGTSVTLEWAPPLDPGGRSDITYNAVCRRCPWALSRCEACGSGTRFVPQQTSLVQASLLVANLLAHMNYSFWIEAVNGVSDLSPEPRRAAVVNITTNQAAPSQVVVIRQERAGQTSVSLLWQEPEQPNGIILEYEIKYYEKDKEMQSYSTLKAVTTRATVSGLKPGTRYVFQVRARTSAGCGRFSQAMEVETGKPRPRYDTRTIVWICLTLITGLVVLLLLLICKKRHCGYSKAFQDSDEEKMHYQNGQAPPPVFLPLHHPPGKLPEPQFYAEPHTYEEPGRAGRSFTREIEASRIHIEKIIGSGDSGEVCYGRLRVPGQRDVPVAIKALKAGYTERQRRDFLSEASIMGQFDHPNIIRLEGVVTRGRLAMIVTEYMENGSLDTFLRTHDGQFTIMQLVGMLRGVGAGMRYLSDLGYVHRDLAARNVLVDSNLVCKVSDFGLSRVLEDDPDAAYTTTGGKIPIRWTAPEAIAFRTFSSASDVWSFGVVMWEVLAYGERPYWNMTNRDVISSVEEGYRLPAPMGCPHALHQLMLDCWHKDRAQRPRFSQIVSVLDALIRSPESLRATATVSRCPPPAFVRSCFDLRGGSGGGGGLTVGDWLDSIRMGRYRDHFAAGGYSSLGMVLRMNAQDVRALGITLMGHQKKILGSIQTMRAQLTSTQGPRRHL
# [15] = target: Ephrin type-B receptor 3 (Homo sapiens) (UniProt P54753); settings: Compound concentration 1000.0 nM
# [16] = target: Fibroblast growth factor receptor 4 (Homo sapiens) (UniProt P22455); settings: Compound concentration 1000.0 nM
# [17] = target: Homeodomain-interacting protein kinase 1 (Homo sapiens) (UniProt Q86Z02); settings: Compound concentration 1000.0 nM
# [18] = target: Insulin-like growth factor 1 receptor (Homo sapiens) (UniProt P08069); settings: Compound concentration 1000.0 nM
# [19] = target: Inhibitor of nuclear factor kappa-B kinase subunit alpha (Homo sapiens) (UniProt O15111); settings: Compound concentration 1000.0 nM
# [20] = target: Interleukin-1 receptor-associated kinase 3 (Homo sapiens) (UniProt Q9Y616); settings: Compound concentration 1000.0 nM
# [21] = target: Tyrosine-protein kinase JAK1 (Homo sapiens) (UniProt P23458); settings: Compound concentration 1000.0 nM
# [22] = target: Serine/threonine-protein kinase MAK (Homo sapiens) (UniProt P20794); settings: Compound concentration 1000.0 nM
# [23] = target: Mitogen-activated protein kinase kinase kinase kinase 5 (Homo sapiens) (UniProt Q9Y4K4); settings: Compound concentration 1000.0 nM
# [24] = target: Dual specificity mitogen-activated protein kinase kinase 7 (Homo sapiens) (UniProt O14733); settings: Compound concentration 1000.0 nM
# Sequence of Dual specificity mitogen-activated protein kinase kinase 7 (Homo sapiens) (O14733 whole entry): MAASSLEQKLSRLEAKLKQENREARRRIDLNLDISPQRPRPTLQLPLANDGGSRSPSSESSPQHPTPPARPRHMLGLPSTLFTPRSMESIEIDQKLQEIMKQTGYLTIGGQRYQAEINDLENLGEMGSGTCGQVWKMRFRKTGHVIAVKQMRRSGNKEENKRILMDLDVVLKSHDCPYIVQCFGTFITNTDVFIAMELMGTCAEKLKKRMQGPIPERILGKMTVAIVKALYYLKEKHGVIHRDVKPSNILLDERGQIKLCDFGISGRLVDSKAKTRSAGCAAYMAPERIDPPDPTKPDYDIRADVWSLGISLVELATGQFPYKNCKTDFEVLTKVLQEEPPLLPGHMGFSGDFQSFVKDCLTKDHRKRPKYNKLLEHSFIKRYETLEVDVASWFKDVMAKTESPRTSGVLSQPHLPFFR
# [25] = target: Serine/threonine-protein kinase Nek2 (Homo sapiens) (UniProt P51955); settings: Compound concentration 1000.0 nM
# [26] = target: Serine/threonine-protein kinase Nek3 (Homo sapiens) (UniProt P51956); settings: Compound concentration 1000.0 nM
# [27] = target: Serine/threonine-protein kinase NIM1 (Homo sapiens) (UniProt Q8IY84); settings: Compound concentration 1000.0 nM
# [28] = target: Serine/threonine-protein kinase PAK 5 (Homo sapiens) (UniProt Q9P286); settings: Compound concentration 1000.0 nM
# [29] = target: Cyclin-dependent kinase 16 (Homo sapiens) (UniProt Q00536); settings: Compound concentration 1000.0 nM
# [30] = test system: Phosphatidylinositol 4,5-bisphosphate 3-kinase catalytic subunit alpha isoform (Homo sapiens), P42336 [H1047L]; settings: Compound concentration 1000.0 nM
# [31] = test system: Phosphatidylinositol 4,5-bisphosphate 3-kinase catalytic subunit alpha isoform (Homo sapiens), P42336 [Q546K]; settings: Compound concentration 1000.0 nM
# [32] = target: Phosphatidylinositol 4,5-bisphosphate 3-kinase catalytic subunit delta isoform (Homo sapiens) (UniProt O00329); settings: Compound concentration 1000.0 nM
# [33] = target: cAMP-dependent protein kinase catalytic subunit beta (Homo sapiens) (UniProt P22694); settings: Compound concentration 1000.0 nM
# [34] = target: Ribosomal protein S6 kinase alpha-5 (Homo sapiens) (UniProt O75582); settings: Compound concentration 1000.0 nM
# [35] = target: SRSF protein kinase 1 (Homo sapiens) (UniProt Q96SB4); settings: Compound concentration 1000.0 nM
# [36] = target: TGF-beta receptor type-2 (Homo sapiens) (UniProt P37173); settings: Compound concentration 1000.0 nM
# [37] = target: BDNF/NT-3 growth factors receptor (Homo sapiens) (UniProt Q16620); settings: Compound concentration 1000.0 nM
# [38] = target: Transient receptor potential cation channel subfamily M member 6 (Homo sapiens) (UniProt Q9BX84); settings: Compound concentration 1000.0 nM
# [39] = target: Wee1-like protein kinase (Homo sapiens) (UniProt P30291); settings: Compound concentration 1000.0 nM
# Sequence of Wee1-like protein kinase (Homo sapiens) (P30291 whole entry, looked up): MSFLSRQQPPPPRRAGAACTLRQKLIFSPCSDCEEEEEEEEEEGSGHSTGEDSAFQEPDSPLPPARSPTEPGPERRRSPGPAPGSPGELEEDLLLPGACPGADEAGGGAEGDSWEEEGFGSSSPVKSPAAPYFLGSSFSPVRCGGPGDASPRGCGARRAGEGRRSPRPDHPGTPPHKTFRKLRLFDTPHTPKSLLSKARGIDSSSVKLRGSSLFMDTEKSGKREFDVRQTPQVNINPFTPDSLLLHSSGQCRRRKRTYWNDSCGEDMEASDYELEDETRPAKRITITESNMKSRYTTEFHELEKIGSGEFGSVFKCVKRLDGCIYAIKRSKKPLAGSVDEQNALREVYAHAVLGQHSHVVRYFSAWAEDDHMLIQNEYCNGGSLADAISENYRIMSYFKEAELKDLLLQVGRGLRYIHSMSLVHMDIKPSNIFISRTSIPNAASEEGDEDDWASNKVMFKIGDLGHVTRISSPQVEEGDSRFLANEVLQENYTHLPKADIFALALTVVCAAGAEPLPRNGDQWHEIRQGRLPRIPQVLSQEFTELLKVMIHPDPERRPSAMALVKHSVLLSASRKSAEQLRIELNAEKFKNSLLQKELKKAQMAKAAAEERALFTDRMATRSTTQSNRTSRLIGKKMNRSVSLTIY
# [40] = target: 5-hydroxytryptamine receptor 2C (Homo sapiens) (UniProt P28335); settings: Compound concentration 10.0 uM
# [41] = target: D(3) dopamine receptor (Homo sapiens) (UniProt P35462); settings: Compound concentration 10.0 uM
# [42] = target: Muscarinic acetylcholine receptor M1 (Homo sapiens) (UniProt P11229); settings: Compound concentration 10.0 uM
# [43] = target: Muscarinic acetylcholine receptor M2 (Homo sapiens) (UniProt P08172); settings: Compound concentration 10.0 uM
# [44] = target: Muscarinic acetylcholine receptor M5 (Homo sapiens) (UniProt P08912); settings: Compound concentration 10.0 uM
# [45] = target: Alpha-1D adrenergic receptor (Homo sapiens) (UniProt P25100); settings: Compound concentration 10.0 uM
# Sequence of Alpha-1D adrenergic receptor (Homo sapiens) (P25100 whole entry): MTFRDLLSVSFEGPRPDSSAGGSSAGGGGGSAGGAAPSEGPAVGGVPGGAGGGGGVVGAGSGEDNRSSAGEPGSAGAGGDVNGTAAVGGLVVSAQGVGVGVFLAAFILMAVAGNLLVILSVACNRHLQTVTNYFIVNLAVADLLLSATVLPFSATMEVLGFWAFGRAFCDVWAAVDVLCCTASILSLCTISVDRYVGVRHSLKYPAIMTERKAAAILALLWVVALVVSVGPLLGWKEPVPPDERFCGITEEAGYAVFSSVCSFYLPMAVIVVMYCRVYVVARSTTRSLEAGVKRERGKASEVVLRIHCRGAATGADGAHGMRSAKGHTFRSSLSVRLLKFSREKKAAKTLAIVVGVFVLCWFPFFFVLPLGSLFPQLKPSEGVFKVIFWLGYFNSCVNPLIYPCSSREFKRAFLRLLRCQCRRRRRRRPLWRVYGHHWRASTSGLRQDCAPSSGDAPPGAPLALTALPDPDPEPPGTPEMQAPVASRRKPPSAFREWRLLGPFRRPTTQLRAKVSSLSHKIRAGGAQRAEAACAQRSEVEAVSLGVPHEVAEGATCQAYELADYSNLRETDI
# Sequence of Activin receptor type-1-like (Homo sapiens) (P37023 whole entry): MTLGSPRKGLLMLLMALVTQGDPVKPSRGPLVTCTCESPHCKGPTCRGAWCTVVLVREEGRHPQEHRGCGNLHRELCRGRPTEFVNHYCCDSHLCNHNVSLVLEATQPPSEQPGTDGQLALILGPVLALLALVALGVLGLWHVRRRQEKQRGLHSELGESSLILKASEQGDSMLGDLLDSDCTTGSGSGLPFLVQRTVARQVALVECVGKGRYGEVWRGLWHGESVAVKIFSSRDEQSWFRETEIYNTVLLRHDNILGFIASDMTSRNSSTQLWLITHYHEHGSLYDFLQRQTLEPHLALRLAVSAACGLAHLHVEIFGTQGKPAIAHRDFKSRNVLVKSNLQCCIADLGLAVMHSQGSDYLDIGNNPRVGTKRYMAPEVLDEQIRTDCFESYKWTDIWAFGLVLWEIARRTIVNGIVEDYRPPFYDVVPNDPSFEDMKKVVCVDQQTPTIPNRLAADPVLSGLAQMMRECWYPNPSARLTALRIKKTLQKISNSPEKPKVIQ
compound,measurement,setting,value
Cc1cc(-n2nc(Cc3cc(F)cc(C(F)(F)F)c3)nc2C)ccc1C(N)=O [TP-024],residual activity,[1],100%
same,residual activity,[2],100%
same,residual activity,[3],100%
same,residual activity,[4],100%
same,residual activity,[5],100%
same,residual activity,[6],100%
same,residual activity,[7],100%
same,residual activity,[8],100%
same,residual activity,[9],92%
same,residual activity,[10],100%
same,residual activity,[11],100%
same,residual activity,[12],100%
same,residual activity,[13],100%
same,residual activity,[14],100%
same,residual activity,[15],100%
same,residual activity,[16],100%
same,residual activity,[17],92%
same,residual activity,[18],98%
same,residual activity,[19],100%
same,residual activity,[20],100%
same,residual activity,[21],100%
same,residual activity,[22],100%
same,residual activity,[23],100%
same,residual activity,[24],100%
same,residual activity,[25],100%
same,residual activity,[26],100%
same,residual activity,[27],100%
same,residual activity,[28],100%
same,residual activity,[29],100%
same,residual activity,[30],87%
same,residual activity,[31],76%
same,residual activity,[32],52%
same,residual activity,[33],100%
same,residual activity,[34],97%
same,residual activity,[35],81%
same,residual activity,[36],100%
same,residual activity,[37],98%
same,residual activity,[38],100%
same,residual activity,[39],100%
same,inhibition,[40],-5.34%
same,inhibition,[41],3.4%
same,inhibition,[42],-7.57%
same,inhibition,[43],5.69%
same,inhibition,[44],-2.07%
same,inhibition,[45],3.15%
Cc1nc(Cc2cccc(C(F)(F)F)c2)sc1-c1ccc(C(N)=O)nc1 [TP-024n],residual activity,[1],99%
same,residual activity,[2],62%
same,residual activity,[3],100%
same,residual activity,[4],100%
same,residual activity,[5],90%
same,residual activity,[6],100%
same,residual activity,[7],100%
same,residual activity,[8],100%
same,residual activity,[9],67%
same,residual activity,[10],0%
same,residual activity,[11],67%
same,residual activity,[12],100%
same,residual activity,[13],96%
same,residual activity,[14],100%
same,residual activity,[15],100%
same,residual activity,[16],100%
same,residual activity,[17],92%
same,residual activity,[18],100%
same,residual activity,[19],100%
same,residual activity,[20],100%
same,residual activity,[21],92%
same,residual activity,[22],81%
same,residual activity,[23],87%
same,residual activity,[24],100%
same,residual activity,[25],100%
same,residual activity,[26],100%
same,residual activity,[27],100%
same,residual activity,[28],97%
same,residual activity,[29],100%
same,residual activity,[30],72%
same,residual activity,[31],86%
same,residual activity,[32],100%
same,residual activity,[33],92%
same,residual activity,[34],100%
same,residual activity,[35],75%
same,residual activity,[36],100%
same,residual activity,[37],84%
same,residual activity,[38],88%
same,residual activity,[39],96%
same,inhibition,[40],0.93%
same,inhibition,[41],6.21%
same,inhibition,[42],10%
same,inhibition,[43],12.8%
same,inhibition,[44],11.2%
same,inhibition,[45],-5.68%
